Measurements taken from ChEMBL document CHEMBL1255393, “Impact of different factors on the probability of clinical response in tigecycline-treated patients with intra-abdominal infections” (Antimicrob Agents Chemother, 2010).
In brackets after ≈: the same amount, converted by molar mass.

Tests used:
[1] = Ratio of AUC in intra-abdominal infection patient at 100 mg followed by 50 mg every 12 hrs for 5 to 14 days to MIC for Enterobacteriaceae isolate; assay type: functional
Enterobacteriaceae = assay: Antibacterial activity against Enterobacteriaceae isolate obtained from intra-abdominal infection patient; assay type: functional
[2] = AUC in intra-abdominal infection patient at 100 mg followed by 50 mg every 12 hrs for 5 to 14 days; assay type: ADME, organism-based; details: human, plasma
[3] = Serum clearance in intra-abdominal infection patient at 100 mg followed by 50 mg every 12 hrs for 5 to 14 days; assay type: ADME, organism-based; details: human

MIC50 (Enterobacteriaceae): 0.25 mg/L (≈ 0.427 µM)
MIC90 (Enterobacteriaceae): 1 mg/L (≈ 1.71 µM)
AUC [2]: 6.19 µg·h/mL
clearance [3]: 268 mL/min
Compound: CN(C)c1cc(NC(=O)CNC(C)(C)C)c(O)c2c1C[C@H]1C[C@H]3[C@H](N(C)C)C(O)=C(C(N)=O)C(=O)[C@@]3(O)C(O)=C1C2=O [TIGECYCLINE]
Ratio [1]: 21.8
